This is an account of results in patent US12312359B2 (Vitae Pharmaceuticals, LLC, priority 2016, dated 2025).

A value given as a limit tells only on which side of the number the result lay.

The term IC50 denotes the concentration that inhibits the measured activity by half. Low values mean greater potency, high ones weaker potency. For orientation: EC50 means the concentration at which the effect is half-maximal. A low value points to greater potency.

In assay [1] the target is T1, biotinylated wild-type menin and MLL-AF9 fusion protein (menin/MLL binding) (Homo sapiens, UniProt O00255).
T1 construct: made in house; host or cells: menin: E. coli; MLL-AF9-FLAG: HEK293 cells, used as cleared lysate
T1 sequence (O00255 1-610): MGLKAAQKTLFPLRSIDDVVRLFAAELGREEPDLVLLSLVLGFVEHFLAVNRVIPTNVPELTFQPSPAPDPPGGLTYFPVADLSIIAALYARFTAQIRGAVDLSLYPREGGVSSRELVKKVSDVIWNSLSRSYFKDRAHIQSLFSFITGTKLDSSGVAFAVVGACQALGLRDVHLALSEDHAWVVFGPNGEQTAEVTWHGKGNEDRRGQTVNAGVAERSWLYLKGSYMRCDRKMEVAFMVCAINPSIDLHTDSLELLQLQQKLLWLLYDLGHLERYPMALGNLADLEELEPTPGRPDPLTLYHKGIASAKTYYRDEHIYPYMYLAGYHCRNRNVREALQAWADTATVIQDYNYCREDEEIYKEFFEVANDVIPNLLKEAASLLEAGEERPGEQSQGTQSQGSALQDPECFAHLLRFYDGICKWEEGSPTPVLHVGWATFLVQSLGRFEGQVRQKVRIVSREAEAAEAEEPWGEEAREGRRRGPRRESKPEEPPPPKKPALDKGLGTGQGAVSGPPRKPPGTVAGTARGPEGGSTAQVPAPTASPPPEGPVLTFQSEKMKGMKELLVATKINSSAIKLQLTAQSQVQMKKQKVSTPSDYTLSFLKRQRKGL
In words: Assay 1: menin/MLL binding AlphaLISA assay, wild-type menin. Particulars: Table 30; column head does not say wild-type or mutated menin. The procedure, abridged: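 Compound was preincubated 30 min at room temperature with biotinylated menin (5 nM) and MLL-AF9-FLAG lysate from HEK293 cells, pH 7.4 buffer with 5% DMSO and DTT. Bead-based Alpha signal after 60 min with streptavidin donor and anti-FLAG acceptor beads; four-parameter logistic fit gave IC50.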
On the technique in general: Alpha assays give light when donor and acceptor beads are brought close together.

Assay [2] deals with human acute monocytic leukemia cell line MV-4-11. In words: Assay 2: cell proliferation assay (ATP quantitation, CellTiter-Glo), MV-4-11. The format is cell-based. Particulars: MV-4-11 cells. The method in brief: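 MV-4-11 cells, 1.67×10^4 per well in medium with 10% FBS, were exposed to compound for 72 h at 37° C., 5% CO2; HL-60 cells served as toxicity control. Proliferation read as ATP content by CellTiter-Glo luminescence.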

`N#Cc1ccc(-c2cc(F)cc(F)c2Oc2cncnc2N2CCC3(CCN(Cc4ccc5[nH]c(=O)[nH]c5c4)C3)C2)c(C2CC2)c1` (centres unmarked) [Example 199, 2-cyclopropyl-3′,5′-difluoro-2′-((4-(7-((2-oxo-2,3-dihydro-1H-benzo[d]imidazol-5-yl)methyl)-2,7-diazaspiro[4.4]nonan-2-yl)pyrimidin-5-yl)oxy)-[1,1′-biphenyl]-4-carbonitrile]: the IC50 in assay [1] is < 0.1 µM. Further, the EC50 in assay [2] (72 h) is ≥ 1 µM.
Turning to `CC(C)c1ncncc1-c1cc(F)ccc1Oc1cncnc1N1CCC2(CCN(Cc3ccc4c(c3)[nH]c(=O)n4C)C2)C1` (centres unmarked) [Example 150, 5-((7-(5-(4-fluoro-2-(4-isopropylpyrimidin-5-yl)phenoxy)pyrimidin-4-yl)-2,7-diazaspiro[4.4]nonan-2-yl)methyl)-1-methyl-1,3-dihydro-2H-benzo[d]imidazol-2-one], in assay [1], the IC50 was < 0.1 µM. For the same compound, in assay [2] (Homo sapiens, MV4-11, 72 h), the concentration giving a half-maximal response (EC50) is < 0.1 µM.
On to `CC(C)N(C)C(=O)c1cc(F)ccc1Oc1cncnc1N1CCC2(CCN(Cc3ccc4c(c3)[nH]c(=O)n4C)C2)C1` (centres unmarked) [Example 163, 5-fluoro-N-isopropyl-N-methyl-2-((4-(7-((1-methyl-2-oxo-2,3-dihydro-1H-benzo[d]imidazol-5-yl)methyl)-2,7-diazaspiro[4.4]nonan-2-yl)pyrimidin-5-yl)oxy)benzamide], for which, in assay [1], the concentration for half-maximal inhibition (IC50) was < 0.1 µM. In assay [2] (Homo sapiens, MV4-11, 72 h), this compound came in with an EC50 of 0.1 to 1 µM.
Take `CC(F)(F)c1ccccc1-c1cc(F)ccc1Oc1cncnc1N1CCC2(CCN(Cc3ccc4[nH]c(=O)[nH]c4c3)C2)C1` (centres unmarked) [Example 213, 5-((7-(5-((2′-(1,1-difluoroethyl)-5-fluoro-[1,1′-biphenyl]-2-yl)oxy)pyrimidin-4-yl)-2,7-diazaspiro[4.4]nonan-2-yl)methyl)-1,3-dihydro-2H-benzo[d]imidazol-2-one]: in assay [1], the IC50 is < 0.1 µM. For the same compound, the EC50 in assay [2] (Homo sapiens, MV4-11, 72 h) is < 0.1 µM.
As for `CC(C)N(C(=O)c1cc(F)ccc1Nc1cncnc1N1CCC2(CC1)CN(CC(C)(C)O)C2)C(C)C` [Example 16, 5-fluoro-2-((4-(2-(2-hydroxy-2-methylpropyl)-2,7-diazaspiro[3.5]nonan-7-yl)pyrimidin-5-yl)amino)-N,N-diisopropylbenzamide], in assay [1], the IC50 was < 0.1 µM. Also, in assay [2] (Homo sapiens, MV4-11, 72 h), the EC50 is 0.1 to 1 µM.
As to `CC(C)N(C(=O)c1cc(F)ccc1Oc1cncnc1N1CCC2(CCN(Cc3ccc4[nH]c(=O)[nH]c4c3)C2)C1)C1CC1` (centres unmarked) [Example 122, N-cyclopropyl-5-fluoro-N-isopropyl-2-((4-(7-((2-oxo-2,3-dihydro-1H-benzo[d]imidazol-5-yl)methyl)-2,7-diazaspiro[4.4]nonan-2-yl)pyrimidin-5-yl)oxy)benzamide], in assay [1], the IC50 is < 0.1 µM. For the same compound, in assay [2] (Homo sapiens, MV4-11, 72 h), the EC50 was < 0.1 µM.
`CN(C)C(=O)c1ccc(-c2cc(F)ccc2Oc2cncnc2N2CCC3(CCN(Cc4ccc5[nH]c(=O)[nH]c5c4)C3)C2)c(C2CC2)c1` (centres unmarked) [Example 45, 2-cyclopropyl-5′-fluoro-N,N-dimethyl-2′-((4-(7-((2-oxo-2,3-dihydro-1H-benzo[d]imidazol-5-yl)methyl)-2,7-diazaspiro[4.4]nonan-2-yl)pyrimidin-5-yl)oxy)-[1,1′-biphenyl]-4-carboxamide]: in assay [1], the IC50 was < 0.1 µM. Also, in assay [2] (Homo sapiens, MV4-11, 72 h), the EC50 was < 0.1 µM.
As to `CCN(C(=O)C(C)C)c1cc(F)ccc1Oc1cncnc1N1CC2(CCN(CC3CCOCC3)C2)C1` [Example 156, N-ethyl-N-(5-fluoro-2-((4-(6-((tetrahydro-2H-pyran-4-yl)methyl)-2,6-diazaspiro[3.4]octan-2-yl)pyrimidin-5-yl)oxy)phenyl)iso-butyramide], in assay [1], the 50% inhibitory concentration (IC50) was < 0.1 µM. Also, in assay [2] (Homo sapiens, MV4-11, 72 h), the EC50 was in the range of 0.1 to 1 µM.
On to `Cn1c(-c2cc(F)ccc2Oc2cncnc2N2CCC3(CCN(Cc4ccc5c(c4)[nH]c(=O)n5CCO)C3)C2)c(C2CC2)ccc1=O` (single isomer, unassigned) [Example 81B, 5-((7-(5-(2-(3-cyclopropyl-1-methyl-6-oxo-1,6-dihydropyridin-2-yl)-4-fluorophenoxy)pyrimidin-4-yl)-2,7-diazaspiro[4.4]nonan-2-yl)methyl)-1-(2-hydroxyethyl)-1H-benzo[d]imidazol-2(3H)-one], for which, in assay [1], the IC50 is < 0.1 µM. In assay [2] (72 h), the EC50 was < 0.1 µM.
For `O=c1[nH]c2ccc(CN3CCC4(CCN(c5ncncc5Oc5ccc(F)cc5CN5CCOCC5)C4)C3)cc2[nH]1` (centres unmarked) [Example 70, 5-((7-(5-(4-fluoro-2-(morpholinomethyl)phenoxy)pyrimidin-4-yl)-2,7-diazaspiro[4.4]nonan-2-yl)methyl)-1H-benzo[d]imidazol-2(3H)-one], the IC50 in assay [1] is < 0.1 µM. Further, the EC50 in assay [2] (Homo sapiens, MV4-11, 72 h) was < 0.1 µM.
Regarding `CC(C)N(C(=O)c1cc(F)ccc1Oc1cncnc1N1CC2(CN(CC[C@H]3CC[C@H](NC(=O)C(C)(C)C)CC3)C2)C1)C(C)C` [Example 105, 5-fluoro-N,N-diisopropyl-2-((4-(6-(2-((1r,4r)-4-pivalamidocyclo-hexyl)ethyl)-2,6-diazaspiro[3.3]heptan-2-yl)pyrimidin-5-yl)oxy)benzamide], in assay [1], the IC50 was < 0.1 µM. Besides, the EC50 in assay [2] (Homo sapiens, MV4-11, 72 h) is < 0.1 µM.
With `N#Cc1ccc(-c2cc(F)ccc2Oc2cncnc2N2CCC3(CCN(Cc4ccc5[nH]c(=O)[nH]c5c4)C3)C2)c(C2CC2)c1` (single isomer, unassigned) [Example 42A, 2-cyclopropyl-5′-fluoro-2′-((4-(7-((2-oxo-2,3-dihydro-1H-benzo[d]imidazol-5-yl)methyl)-2,7-diazaspiro[4.4]nonan-2-yl)pyrimidin-5-yl)oxy)-[1,1′-biphenyl]-4-carbonitrile], in assay [1], the IC50 was < 0.1 µM. Also, in assay [2] (Homo sapiens, MV4-11, 72 h), the EC50 was < 0.1 µM.
Regarding `CCN(C(=O)C(C)C)c1cc(F)ccc1Oc1cncnc1N1CC2(CCN(C[C@H]3CC[C@H](NS(C)(=O)=O)CC3)CC2)C1` [Example 86, N-ethyl-N-(5-fluoro-2-((4-(7-(((1r,4r)-4-(methylsulfonamido)cyclohexyl)methyl)-2,7-diazaspiro [3.5]nonan-2-yl)pyrimidin-5-yl)oxy)phenyl)iso-butyramide], in assay [1], the IC50 is < 0.1 µM. Further, the EC50 in assay [2] (Homo sapiens, MV4-11, 72 h) was < 0.1 µM.
Take `CC(C)N(C(=O)c1cc(F)ccc1Oc1cncnc1N1CC2(CCN(CC(C)(C)C)C2)C1)C(C)C` [Example 102, 5-fluoro-N,N-diisopropyl-2-((4-(6-neopentyl-2,6-diazaspiro[3.4]octan-2-yl)pyrimidin-5-yl)oxy)benzamide]: the IC50 in assay [1] is < 0.1 µM. Besides, the EC50 in assay [2] (Homo sapiens, MV4-11, 72 h) was < 0.1 µM.
Take `CC(C)N(C)C(=O)c1cc(F)ccc1Oc1cncnc1N1CC2(CN(CC[C@H]3CC[C@H](NC(=O)OC(C)(C)C)CC3)C2)C1` [Example 134, tert-butyl ((1r,4r)-4-(2-(6-(5-(4-fluoro-2-(isopropyl(methyl)carbamoyl)phenoxy)pyrimidin-4-yl)-2,6-diazaspiro[3.3]heptan-2-yl)ethyl)cyclohexyl) carbamate]: the IC50 in assay [1] is < 0.1 µM. This compound also had a concentration for a half-maximal effect (EC50) in assay [2] (Homo sapiens, MV4-11, 72 h) of 0.1 to 1 µM.
With `N#Cc1ccc(-c2cc(F)ccc2Oc2cncnc2N2CCC3(CCN(Cc4ccc5nn[nH]c5c4)C3)C2)c(C2CC2)c1` (centres unmarked) [Example 171, 2′-((4-(7-((1H-benzo[d][1,2,3]triazol-6-yl)methyl)-2,7-diazaspiro[4.4]nonan-2-yl)pyrimidin-5-yl)oxy)-2-cyclopropyl-5′-fluoro-[1,1′-biphenyl]-4-carbonitrile], the concentration for half-maximal inhibition (IC50) in assay [1] is < 0.1 µM. Also, the half-maximal effective concentration (EC50) in assay [2] (Homo sapiens, MV4-11, 72 h) was < 0.1 µM.
With `CC(C)N(C(=O)c1cc(F)ccc1Nc1cncnc1N1CCC2(CC1)CN(C[C@H]1CC[C@H](NC(=O)OC(C)(C)C)CC1)C2)C(C)C` [Example 241, tert-butyl ((1r,4r)-4-((7-(5-((2-(diisopropylcarbamoyl)-4-fluorophenyl)amino)pyrimidin-4-yl)-2,7-diazaspiro [3.5]nonan-2-yl)methyl)cyclohexyl) carbamate], in assay [1], the IC50 is < 0.1 µM. The compound also registered an EC50 in assay [2] (Homo sapiens, MV4-11, 72 h) of 0.1 to 1 µM.
For `CC(C)N(C(=O)c1cc(F)ccc1Oc1cncnc1N1CC2(CCN(C3CCc4cc(C#N)ccc4C3)C2)C1)C(C)C` (centres unmarked) [Example 104, 2-((4-(6-(6-cyano-1,2,3,4-tetrahydro-naphthalen-2-yl)-2,6-diazaspiro[3.4]octan-2-yl)pyrimidin-5-yl)oxy)-5-fluoro-N,N-diisopropyl-benzamide], the IC50 in assay [1] is < 0.1 µM. Further, the EC50 in assay [2] (Homo sapiens, MV4-11, 72 h) was < 0.1 µM.
With `CC(C)N(C)C(=O)c1cc(F)ccc1Oc1cncnc1N1CCC2(CCN(Cc3ccc4cn[nH]c4c3)C2)C1` (centres unmarked) [Example 145, 2-((4-(7-((1H-indazol-6-yl)methyl)-2,7-diazaspiro[4.4]nonan-2-yl)pyrimidin-5-yl)oxy)-5-fluoro-N-isopropyl-N-methylbenzamide], in assay [1], the IC50 is < 0.1 µM. In assay [2] (Homo sapiens, MV4-11, 72 h), the concentration giving a half-maximal response (EC50) is 0.1 to 1 µM.
